Test results as given in ChEMBL document CHEMBL3244067, “Synthesis and biological activity of carboxyl-terminus modified prostaglandin analogues” (J Med Chem, 1979).

Key:
Canis familiaris = test: Hypotensive activity in iv dosed PGE2-treated Mongrel dog assessed as change in blood pressure of greater than 10 mm by mercury manometer relative to PGE2; format: functional, Canis lupus familiaris
Mus musculus = test: Induction of diarrheal activity in conscious mouse at 0.1 to 3 mg/kg, iv administered for 30 mins relative to PGE2; format: organism-based; set-up: dose 0.1-3 mg/kg, route intravenous; settings: in vivo, 0.5 h
[1] = Spasmogenic activity in nulliparous guinea pig uterine relative to PGE2; format: functional, Cavia porcellus, Uterus
[2] = Dissociation constant, pKa of the compound; format: physicochemical
Rattus norvegicus [3] = test: Antisecretory activity in rat assessed as inhibition of pentagastrin-stimulated gastric acid secretion at 50 ug/kg, iv relative to PGE2; format: functional, Stomach
Cavia porcellus = test: Bronchodilator activity in Reed-Willet guinea pig assessed as inhibition of histamine-induced bronchoconstriction at 0.28 mM administered through nebulizer for 1 min relative to PGE2; format: functional
Rattus norvegicus [4] = test: Antisecretory activity in rat assessed as inhibition of pentagastrin-stimulated gastric acid secretion at 10 ug/kg, iv relative to PGE2; format: functional, Stomach

## CCCCC[C@H](O)/C=C/[C@@H]1[C@@H](C/C=C\CCCC(=O)O)[C@@H](O)C[C@H]1O [DINOPROST]
Canis familiaris
  fold change (FC): 10
Mus musculus
  fold change (FC): 6.5
[1]
  fold change (FC): 10

## O=C(CCCC[P+](c1ccccc1)(c1ccccc1)c1ccccc1)NS(=O)(=O)c1ccccc1
[2]
  pKa: 5.12

## CCCCC[C@H](O)/C=C/[C@H]1[C@H](O)CC(=O)[C@@H]1C/C=C\CCCC(=O)NC(=O)c1ccccc1
Rattus norvegicus [3]
  fold change (FC): 40
Cavia porcellus
  fold change (FC): 87
Canis familiaris
  fold change (FC): 10
Mus musculus
  fold change (FC): 83
[1]
  fold change (FC): 67

## CCCCC[C@H](O)/C=C/[C@H]1[C@H](O)CC(=O)[C@@H]1C/C=C\CCCC(N)=O
Rattus norvegicus [3]
  fold change (FC): 0
Cavia porcellus
  fold change (FC): 28
Canis familiaris
  fold change (FC): 10
Mus musculus
  fold change (FC): 10
[1]
  fold change (FC): 0.6

## O=C(O)CCCC[P+](c1ccccc1)(c1ccccc1)c1ccccc1
[2]
  pKa: 5.19

## CCCCC[C@H](O)/C=C/[C@@H]1[C@@H](C/C=C\CCCC(=O)NS(C)(=O)=O)[C@@H](O)C[C@H]1O
Canis familiaris
  fold change (FC): <0.5
Mus musculus
  fold change (FC): 25
[1]
  fold change (FC): <0.1

## CCCCC[C@H](O)/C=C/[C@@H]1[C@@H](C/C=C\CCCC(=O)NS(=O)(=O)c2ccccc2)[C@@H](O)C[C@H]1O
Canis familiaris
  fold change (FC): <0.5
Mus musculus
  fold change (FC): < 10
[1]
  fold change (FC): <0.1

## CCCCC[C@H](O)/C=C/[C@@H]1[C@@H](C/C=C\CCCC(N)=O)[C@@H](O)C[C@H]1O
Canis familiaris
  fold change (FC): 2.5
Mus musculus
  fold change (FC): < 5
[1]
  fold change (FC): <0.1

## CCCCC[C@H](O)/C=C/[C@H]1[C@H](O)CC(=O)[C@@H]1C/C=C\CCCC(=O)NC(=O)NCC
Rattus norvegicus [3]
  fold change (FC): 0
Cavia porcellus
  fold change (FC): 28
Canis familiaris
  fold change (FC): 0.5
Mus musculus
  fold change (FC): 27
[1]
  fold change (FC): 0.2

## CCCCC(C)(C)[C@H](O)/C=C/[C@H]1[C@H](O)CC(=O)[C@@H]1C/C=C\CCCC(=O)NC(C)=O
Cavia porcellus
  fold change (FC): 24
Canis familiaris
  fold change (FC): 2.5
Mus musculus
  fold change (FC): 1250
[1]
  fold change (FC): 100
Rattus norvegicus [4]
  fold change (FC): 330

## CCCCC[C@H](O)/C=C/[C@@H]1[C@@H](C/C=C\CCCC(=O)NC(=O)NCC)[C@@H](O)C[C@H]1O
Canis familiaris
  fold change (FC): <0.5
Mus musculus
  fold change (FC): < 10
[1]
  fold change (FC): <0.1

## CCCCC[C@H](O)/C=C/[C@@H]1[C@@H](C/C=C\CCCc2nnn[nH]2)[C@@H](O)C[C@H]1O
Canis familiaris
  fold change (FC): 2.5
Mus musculus
  fold change (FC): < 5
[1]
  fold change (FC): 0.8

## CCCCC[C@H](O)/C=C/[C@@H]1[C@@H](C/C=C\CCCC(=O)NC(C)=O)[C@@H](O)C[C@H]1O
Canis familiaris
  fold change (FC): <0.5
Mus musculus
  fold change (FC): 78
[1]
  fold change (FC): 30

## NC(=O)CCCC[P+](c1ccccc1)(c1ccccc1)c1ccccc1
[2]
  pKa: 15.1

## CC(=O)NC(=O)CCCC[P+](c1ccccc1)(c1ccccc1)c1ccccc1
[2]
  pKa: 12.9

## CCCCC[C@H](O)/C=C/[C@H]1[C@H](O)CC(=O)[C@@H]1C/C=C\CCCC(=O)NC(C)=O
Rattus norvegicus [3]
  fold change (FC): 160
Cavia porcellus
  fold change (FC): 63
Canis familiaris
  fold change (FC): 25
Mus musculus
  fold change (FC): 100
[1]
  fold change (FC): 65

## CCCCC[C@H](O)/C=C/[C@H]1[C@H](O)CC(=O)[C@@H]1C/C=C\CCCC(=O)NS(C)(=O)=O
Rattus norvegicus [3]
  fold change (FC): 12
Cavia porcellus
  fold change (FC): 47
Canis familiaris
  fold change (FC): 1
Mus musculus
  fold change (FC): 10
[1]
  fold change (FC): 7

## CCCCC(C)(C)[C@H](O)/C=C/[C@H]1[C@H](O)CC(=O)[C@@H]1C/C=C\CCCC(=O)O
Cavia porcellus
  fold change (FC): 41
Canis familiaris
  fold change (FC): 10
Mus musculus
  fold change (FC): 5300
[1]
  fold change (FC): 33
Rattus norvegicus [4]
  fold change (FC): 360

## CCCCC[C@H](O)/C=C/[C@H]1[C@H](O)CC(=O)[C@@H]1C/C=C\CCCC(=O)NS(=O)(=O)c1ccccc1
Rattus norvegicus [3]
  fold change (FC): 20
Cavia porcellus
  fold change (FC): 28
Canis familiaris
  fold change (FC): <0.5
Mus musculus
  fold change (FC): 33
[1]
  fold change (FC): 3.1

## CCCCC[C@H](O)/C=C/[C@@H]1[C@@H](C/C=C\CCNC(=O)NC(C)=O)[C@@H](O)C[C@H]1O
Canis familiaris
  fold change (FC): <0.5
Mus musculus
  fold change (FC): < 5
[1]
  fold change (FC): <0.1

## CCCCC[C@H](O)/C=C/[C@H]1[C@H](O)CC(=O)[C@@H]1C/C=C\CCCc1nnn[nH]1
Rattus norvegicus [3]
  fold change (FC): 35
Cavia porcellus
  fold change (FC): 65
Canis familiaris
  fold change (FC): 10
Mus musculus
  fold change (FC): 50
[1]
  fold change (FC): 100

## CCCCC(C)(C)[C@H](O)/C=C/[C@H]1[C@H](O)CC(=O)[C@@H]1C/C=C\CCCC(=O)NS(C)(=O)=O
Cavia porcellus
  fold change (FC): 28
Canis familiaris
  fold change (FC): <0.5
Mus musculus
  fold change (FC): 1350
[1]
  fold change (FC): 25
Rattus norvegicus [4]
  fold change (FC): 220

## CCCCC[C@H](O)/C=C/[C@H]1[C@H](O)CC(=O)[C@@H]1C/C=C\CCNC(=O)NC(C)=O
Rattus norvegicus [3]
  fold change (FC): 0
Cavia porcellus
  fold change (FC): 25
Canis familiaris
  fold change (FC): <0.5
Mus musculus
  fold change (FC): < 5
[1]
  fold change (FC): <0.1

## CCCCC[C@H](O)/C=C/[C@@H]1[C@@H](C/C=C\CCCC(=O)NC(=O)c2ccccc2)[C@@H](O)C[C@H]1O
Canis familiaris
  fold change (FC): 0.5
Mus musculus
  fold change (FC): < 5
[1]
  fold change (FC): 0.9

## CCCCC(C)(C)[C@H](O)/C=C/[C@H]1[C@H](O)CC(=O)[C@@H]1C/C=C\CCCc1nnn[nH]1
Cavia porcellus
  fold change (FC): 76
Canis familiaris
  fold change (FC): 10
Mus musculus
  fold change (FC): 2550
[1]
  fold change (FC): 120
Rattus norvegicus [4]
  fold change (FC): 130

## O=C(CCCC[P+](c1ccccc1)(c1ccccc1)c1ccccc1)NC(=O)c1ccccc1
[2]
  pKa: 12.9

## c1ccc([P+](CCCCc2nnn[nH]2)(c2ccccc2)c2ccccc2)cc1
[2]
  pKa: 4.93

## CS(=O)(=O)NC(=O)CCCC[P+](c1ccccc1)(c1ccccc1)c1ccccc1
[2]
  pKa: 5.25
